The source of these data is ChEMBL document CHEMBL3507680, “University of Dundee, Gates Library screen for HepG2 cell viability”.

The structures appear in SMILES notation.

The data set in a line: Human HepG2 cell viability assay in 384 well format. Further details: dose 125 nL, time 70.5 hour; cytotoxicity at 70.5 h: concentration not given beside the values. The following applies: HepG2 cells, read-out: Inhibition. The class given is toxicity, cell-based.
For `CC(C)C(=O)N1CCN(Cc2ccccn2)CC2(CC(=O)N(C)C2)C1` (stereo not drawn), the cytotoxicity at 70.5 h was -9.37%.

Regarding `Cc1cnc(N2Cc3nccn3CC(Cn3nc(C)nc3C)C2)nc1` (stereo not drawn), the cytotoxicity at 70.5 h is 0.499%.

Turning to `CN(C)c1cc(C(=O)Nc2ccccc2C(=O)NC(C)(C)C)ccn1`, the cytotoxicity at 70.5 h was -2.3%.

As for `O=C(c1ccc2c(c1)COC2)N1CCCC(n2cncn2)C1` (stereo not drawn), the cytotoxicity at 70.5 h was -4.03%.

Turning to `Cn1ccnc1C1CCN(S(=O)(=O)c2ccc3c(c2)OCCO3)CC1`, the cytotoxicity at 70.5 h turned out to be 9.02%.

Consider `CC1CCN(CCNC(=O)Nc2ccc(F)cc2Cl)CC1`, for which the cytotoxicity at 70.5 h is 9.06%.

`COCCO[C@H]1CCN(c2cc(OC)ncn2)[C@H]1Cc1cnn(C)c1`: the cytotoxicity at 70.5 h was -4.71%.

With `CCc1noc(CN(CC)Cc2cc3ccc(F)cc3[nH]c2=O)n1`, the cytotoxicity at 70.5 h worked out at 9.1%.

In the case of `Cn1cc([C@@H]2CN(S(=O)(=O)c3ccccc3F)C[C@H]2N)c2ccncc21`, the cytotoxicity at 70.5 h worked out at 19%.

Regarding `Cc1ccc(-c2nc(CN3CCn4c(nnc4C4CC4)C3)co2)c(C)c1`, the cytotoxicity at 70.5 h was -5.17%.

With `Cc1cnc(CCNC(=O)NCCOc2ncccc2Cl)s1`, the cytotoxicity at 70.5 h was -2.69%.

Turning to `COc1ccccc1NCc1cscn1`, the cytotoxicity at 70.5 h was -1.66%.

With `CC(C)C(=O)NCC(=O)N1CCC2(CC1)c1ccccc1[C@@H](N)[C@@H]2O`, the cytotoxicity at 70.5 h was determined as 13.2%.

Consider `O=C(CCSc1ccccc1F)NCc1cccnc1`, for which the cytotoxicity at 70.5 h was -8.87%.

Turning to `CC(=O)N1CCCC1c1nccnc1Nc1ncccn1` (stereo not drawn), the cytotoxicity at 70.5 h was found to be 15.9%.

`Cc1ncccc1C(=O)Nc1cccc(OCC(F)F)n1`: the cytotoxicity at 70.5 h is -8.26%.

For `COc1cccc2c(=O)n(Cc3cc(C4CC4)[nH]n3)cnc12`, the cytotoxicity at 70.5 h was found to be 0.602%.

`O=C(O)CC(NC(=O)CCCc1cccs1)c1ccc(F)cc1` (stereo not drawn): the cytotoxicity at 70.5 h was -2.27%.

Turning to `O=C(NC[C@]1(O)CN(Cc2ccccc2F)C[C@H]1O)c1cscn1`, the cytotoxicity at 70.5 h is -8.78%.

Take `CCn1cnnc1C1CCN(C(=O)CCCOc2ccccc2)CC1`: the cytotoxicity at 70.5 h was -3.85%.

In the case of `Cc1cnc2c(c1NCc1ccncc1)c(=O)n(C)c(=O)n2C`, the cytotoxicity at 70.5 h is -2.95%.

`CCN1CCn2c(C)cnc2C12CCN(C(=O)Cc1ccccc1)CC2`: the cytotoxicity at 70.5 h was found to be 24.6%.

For `Cc1cc(C)cc(N2CC(c3nnc(N)s3)CC2=O)c1` (stereo not drawn), the cytotoxicity at 70.5 h came out at 3.73%.

`CCOc1ccc(NC2CCN(C3CC3)C2=O)cn1` (stereo not drawn): the cytotoxicity at 70.5 h is -1.16%.

Turning to `O=C(NCc1cc2ccccc2[nH]1)C1CCCN(C(=O)N2CCCC2)C1` (stereo not drawn), the cytotoxicity at 70.5 h is -3.92%.

Regarding `c1cc(CNCc2ccnc(N3CCCC3)c2)c2c(c1)OCO2`, the cytotoxicity at 70.5 h was -6.8%.

For the compound `O=C(NCc1ccccn1)[C@H]1COC[C@H]2CN(c3ncccn3)C[C@H]21`, the cytotoxicity at 70.5 h was -4.8%.

For `CC(C)(C)c1nc(CN2CCCC(c3noc(C4CC4)n3)C2)no1` (stereo not drawn), the cytotoxicity at 70.5 h was -4.22%.

For `Cc1cc(C)n2nc(CC(=O)N[C@H]3C[C@H]4CN(C)CCN4C3)nc2n1`, the cytotoxicity at 70.5 h was -7.89%.

`Cc1c(CN2CCc3[nH]cnc3C2C(=O)O)[nH]c2ccc(F)cc12` (stereo not drawn): the cytotoxicity at 70.5 h is -20.3%.

With `CN1CCCC(c2cccc(CCC(=O)NCC3(C)COC3)n2)C1` (stereo not drawn), the cytotoxicity at 70.5 h was -1.36%.

On to `Cn1cccc1C(=O)N1C[C@@H]2CCN(c3cccnc3)C[C@@H]2C1`, for which the cytotoxicity at 70.5 h is -7.6%.

As to `Cc1csc(N2CCN(C(=O)C(C)n3cncn3)CC2)n1` (stereo not drawn), the cytotoxicity at 70.5 h came to 0.112%.

On to `O=C(CN1C=Nc2ccccc2S1(=O)=O)NCCc1cccs1`, for which the cytotoxicity at 70.5 h is 1.55%.

On to `Nc1ncnc2nc(C3CCN(C(=O)Cc4ccccc4)C3)ccc12` (stereo not drawn), for which the cytotoxicity at 70.5 h came to 13.4%.

Regarding `O=C(O)CCC(=O)N1CCN(CC2CC2)c2ncccc2C1`, the cytotoxicity at 70.5 h was determined as 22.2%.

In the case of `CC(C(=O)N1CCCCC1)n1nc(-c2cccs2)cc(N)c1=O` (stereo not drawn), the cytotoxicity at 70.5 h came to 14.9%.

Take `CS(=O)(=O)NCc1noc2c1CN(C(=O)C1CCC1)CC2`: the cytotoxicity at 70.5 h was -8.52%.

Turning to `Cc1nc(-c2nnc[nH]2)sc1C(=O)N1CCCC(C(F)(F)F)C1` (stereo not drawn), the cytotoxicity at 70.5 h is -4.51%.

With `FC(F)(F)Cn1ccnc1CNCCn1cccn1`, the cytotoxicity at 70.5 h is -6.92%.

Turning to `Cc1cnn(C2CCCN(C(=O)c3cc(-c4cccs4)n[nH]3)C2)c1` (stereo not drawn), the cytotoxicity at 70.5 h was -4.05%.

Turning to `COc1ccc(S(=O)(=O)NCCn2cnc(C)cc2=O)cc1C`, the cytotoxicity at 70.5 h was -9.08%.

As for `Cn1nc(Cn2cccc2)c2c1CN(Cc1ccsc1)C2`, the cytotoxicity at 70.5 h is -9.77%.

Take `Cc1cc(C(=O)N[C@H](C)c2onc(-c3cccnc3)c2C(=O)O)c(C)o1`: the cytotoxicity at 70.5 h is -2.03%.

Take `CCN(CC1CN(Cc2ncc(C)o2)CCO1)c1cccnn1` (stereo not drawn): the cytotoxicity at 70.5 h is -2.43%.

As for `COCCN1CCC(CNC(=O)c2cc(C)cc(C)c2)C1` (stereo not drawn), the cytotoxicity at 70.5 h is -11.9%.

With `COCCN(C)c1cnn(C)c(=O)c1Br`, the cytotoxicity at 70.5 h was -14.7%.

In the case of `Cc1cc(C)cc(C2(C(=O)NCC3CCN(CC(F)(F)F)C3)CC2)c1` (stereo not drawn), the cytotoxicity at 70.5 h is -2.93%.

Take `COc1cc(CN2CCCC(Nc3cccc(F)c3)C2)cc(OC)c1O` (stereo not drawn): the cytotoxicity at 70.5 h was -5.97%.

In the case of `Cc1ccsc1-c1cccc(-c2ccn(CC3CCNC3)n2)c1` (stereo not drawn), the cytotoxicity at 70.5 h is 21.5%.

Take `CN(Cc1noc(C2CC2)n1)C1CCN(CCn2cccn2)C1` (stereo not drawn): the cytotoxicity at 70.5 h is -5.95%.

In the case of `COc1cccc(-c2n[nH]cc2CNC2CCN(C3CC3)CC2)c1`, the cytotoxicity at 70.5 h was 29.3%.

As for `CS(=O)(=O)CCC(=O)N1CCC(c2cccc(F)c2)C1` (stereo not drawn), the cytotoxicity at 70.5 h is 5.28%.

Consider `O=C(NCCCNC(=O)c1ccccc1)Nc1ccc(F)cc1F`, for which the cytotoxicity at 70.5 h is -4.28%.

`COC(=O)c1ccc(N2CCN(C(=O)C(C)C)C(C)C2)cc1` (stereo not drawn): the cytotoxicity at 70.5 h worked out at 26.6%.

On to `CCN(CC)CCn1cc(NC(=O)CNc2ccccc2OC)cn1`, for which the cytotoxicity at 70.5 h is 7.01%.

Turning to `CCCOCCN1CCC2(CC1)CC(=O)N(Cc1cc(F)cc(F)c1)C2`, the cytotoxicity at 70.5 h is -3.73%.

In the case of `Cc1cc(C(=O)N2CC[C@@H](N(C)C)[C@@H]2Cc2ccccc2)no1`, the cytotoxicity at 70.5 h is -0.0942%.

Consider `COCCN1CCO[C@@H]2CN(C(=O)NCc3ccccc3)CC[C@@H]2C1`, for which the cytotoxicity at 70.5 h amounted to 2.53%.

On to `Cc1ccc(N2Cc3nc(=O)n(C(C)C)n3C2=O)cc1`, for which the cytotoxicity at 70.5 h was -28.9%.

`Cc1cc(C(F)(F)F)c2c(=O)n(Cc3ccon3)n(C)c2n1`: the cytotoxicity at 70.5 h was -5.27%.

For `Cc1cc(NC(=O)N(CCO)Cc2ccsc2)no1`, the cytotoxicity at 70.5 h was -4.98%.

As to `CC(C)OCCCNC(=O)[C@@]12CNC[C@@H]1CN(S(C)(=O)=O)C2`, the cytotoxicity at 70.5 h stood at 13.6%.

`COc1c(CNCc2ccc(N3CCOCC3)nc2)c(C)nn1C`: the cytotoxicity at 70.5 h was -5.76%.

Take `COCC(c1cccc(C(F)(F)F)c1)N(C)C(=O)c1ccco1` (stereo not drawn): the cytotoxicity at 70.5 h was -1.02%.

As for `COc1ccnc(N2CCN(C(=O)N3CCOCC3)CC2)n1`, the cytotoxicity at 70.5 h was -10.7%.

Take `CC(C)(C)OC(=O)NCC1CCN(C(=O)c2ccc(F)cc2F)C1` (stereo not drawn): the cytotoxicity at 70.5 h was -4.74%.

As to `Cc1cccc(CNCC2(O)CCCN(CC3CCCCC3)C2=O)n1` (stereo not drawn), the cytotoxicity at 70.5 h is -5.28%.

As for `CC(C)Oc1cccc(C(=O)C2CCCN(C(=O)c3cncs3)C2)c1` (stereo not drawn), the cytotoxicity at 70.5 h is -10.7%.

Take `COC(=O)c1ccoc1COC(=O)CCc1ccc(OC)c(OC)c1`: the cytotoxicity at 70.5 h was -15.4%.

With `CC(=O)c1cccc(OCCCC(=O)N(C)Cc2ccccn2)c1`, the cytotoxicity at 70.5 h was -2.88%.

`N#Cc1cccc(Cl)c1NCCc1n[nH]c(=O)[nH]1`: the cytotoxicity at 70.5 h is -3.93%.

For the compound `Cc1nc(CCN2CCCCC2)n(-c2ccc(F)cc2)n1`, the cytotoxicity at 70.5 h was 16.5%.

Regarding `Cc1ccccc1C(CNc1ncnc2c1CCNCC2)N(C)C` (stereo not drawn), the cytotoxicity at 70.5 h is 5.24%.

Regarding `COC(=O)c1ccc(NC(=O)[C@@H]2CCCN2C(=O)c2ccco2)s1`, the cytotoxicity at 70.5 h was -7.02%.

Take `Cc1cnc(C)c(N2CCN(Cc3ccc(-c4cc[nH]n4)o3)CC2)n1`: the cytotoxicity at 70.5 h was -12.4%.

For `Cc1cncc(CN2CC[C@@](O)(CNC(=O)c3c[nH]cn3)[C@H](O)C2)c1`, the cytotoxicity at 70.5 h is -6.5%.

Turning to `Cn1cc(NC(=O)CCCc2cccs2)c(=O)n(C)c1=O`, the cytotoxicity at 70.5 h was found to be 5.9%.

As to `O=C1CO[C@H]2CN(Cc3c[nH]c4ccccc34)C[C@H]2N1`, the cytotoxicity at 70.5 h was 7.73%.

Regarding `CSCC(C)(O)CNc1cccc(F)c1C#N` (stereo not drawn), the cytotoxicity at 70.5 h is -15.5%.

Turning to `Cc1cnn(CCNCC(O)c2ccc(S(C)(=O)=O)cc2)c1` (stereo not drawn), the cytotoxicity at 70.5 h was -11.8%.

As for `Cc1n[nH]cc1C(=O)N1CCCC1c1cc[nH]n1` (stereo not drawn), the cytotoxicity at 70.5 h was -5.51%.

Turning to `CN(C)Cc1ccccc1NC(=O)c1ccc(C#N)cc1`, the cytotoxicity at 70.5 h is -7.54%.

For the compound `Cc1cc(C)n(CC2CCCN2C(=O)c2cccc3c2OCCO3)n1` (stereo not drawn), the cytotoxicity at 70.5 h was -3.57%.

For `Cc1csc(CN(C)CCCOc2cccc(C#N)c2)n1`, the cytotoxicity at 70.5 h was 13.7%.

Turning to `CS(=O)(=O)N1CCOCC12CCN(Cc1ccc(F)cc1)CC2`, the cytotoxicity at 70.5 h is -6.42%.

Regarding `CN(C)C(=O)COC[C@]12COC[C@H]1CN(CCc1ccccc1)C2`, the cytotoxicity at 70.5 h is -1.91%.

Regarding `COCCN(CC(F)F)c1cc(C(F)(F)F)nc2ncnn12`, the cytotoxicity at 70.5 h was -7.29%.

`CC(C)OCc1ncn2c1CN(Cc1cccs1)CCC2`: the cytotoxicity at 70.5 h is 1.83%.

As to `Cn1cnc(S(=O)(=O)NCC2(O)CCc3ccccc32)c1` (stereo not drawn), the cytotoxicity at 70.5 h came to 9.61%.

For `Cc1cnc(C(=O)N2C[C@H]3CN(Cc4nccs4)C[C@H]3C2)cn1`, the cytotoxicity at 70.5 h was -5.82%.

On to `Cc1cc(CN2CCCn3nc(CCC(=O)O)cc3C2)ccc1F`, for which the cytotoxicity at 70.5 h came to 2.51%.

Regarding `Cc1cc(OC(F)F)c(C(=O)N2CCN(C3CC3)CC2)s1`, the cytotoxicity at 70.5 h is -8.34%.

Regarding `Cc1ocnc1C(=O)N1CC[C@@H](O)[C@@H](O)[C@H](N2CCC(F)(F)CC2)C1`, the cytotoxicity at 70.5 h was -3.42%.

In the case of `CN1CCC(C(=O)N2CCCN(c3cccnn3)CC2)C1` (stereo not drawn), the cytotoxicity at 70.5 h was -14.6%.

For the compound `Cc1ccc(C(O)CN(C)Cc2cnn(C)c2)cc1C` (stereo not drawn), the cytotoxicity at 70.5 h is -1.99%.

With `CN(Cc1ccco1)Cc1ccccc1CNC(=O)c1cc[nH]n1`, the cytotoxicity at 70.5 h is -6.12%.

In the case of `O=C(CN1CCCc2sccc2C1=O)NC1CCc2nccn2C1` (stereo not drawn), the cytotoxicity at 70.5 h is 23.3%.
